Assay results: patent publication US9155760B2, “Method of prophylaxis of bacterial vaginosis” (STARPHARMA PTY LIMITED, priority 2011, dated 2015)
Converted amounts (≈) assume the structure as drawn. Where two headings read alike, the source gives them in different places. Values belong to the compound of their own block, whether it stands above or below them.

Legend:
[1] = tested on: Anaerococcus prevotii; test: Agar dilution MIC assay (anaerobes); type: cell-based; conditions: Micromyx Number 4151, 35° C., 48 hours, anaerobic
[2] = tested on: Bacteroides fragilis 3374; test: Agar dilution MIC assay (anaerobes); type: cell-based; conditions: Micromyx Number 3374, 35° C., 48 hours, anaerobic
[3] = tested on: Prevotella melaninogenica; test: Agar dilution MIC assay (anaerobes); type: cell-based; conditions: Micromyx Number 3005, 35° C., 48 hours, anaerobic
[4] = tested on: Fusobacterium nucleatum; test: Agar dilution MIC assay (anaerobes); type: cell-based; conditions: Micromyx Number 1269, 35° C., 48 hours, anaerobic
[5] = tested on: Anaerococcus tetradius; test: Agar dilution MIC assay (anaerobes); type: cell-based; conditions: Micromyx Number 4152, 35° C., 48 hours, anaerobic
[6] = tested on: Porphyromonas levii; test: Agar dilution MIC assay (anaerobes); type: cell-based; conditions: Micromyx Number 3003, 35° C., 48 hours, anaerobic
[7] = tested on: Gardnerella vaginalis; test: Agar dilution MIC assay (anaerobes); type: cell-based; conditions: Micromyx Number 4153, 35° C., 48 hours, anaerobic
[8] = tested on: Porphyromonas asaccharolytica; test: Agar dilution MIC assay (anaerobes); type: cell-based; conditions: Micromyx Number 3004, 35° C., 48 hours, anaerobic
[9] = tested on: B. ovatus 3508; test: Agar dilution MIC assay (anaerobes); type: cell-based, Bacteroides ovatus; conditions: Micromyx Number 3508, 35° C., 48 hours, anaerobic
[10] = tested on: Peptostreptococcus anaerobius; test: Agar dilution MIC assay (anaerobes); type: cell-based; conditions: Micromyx Number 3526, 35° C., 48 hours, anaerobic
[11] = tested on: Bacteroides ovatus 3503; test: Agar dilution MIC assay (anaerobes); type: cell-based; conditions: Micromyx Number 3503, 35° C., 48 hours, anaerobic
[12] = tested on: Lactobacillus gasseri; test: Agar dilution MIC assay (anaerobes); type: cell-based; conditions: Micromyx Number 4148, 35° C., 48 hours, anaerobic
[13] = tested on: Lactobacillus casei; test: Agar dilution MIC assay (anaerobes); type: cell-based; conditions: Micromyx Number 1722, 35° C., 48 hours, anaerobic
[14] = tested on: Lactobacillus crispatus; test: Agar dilution MIC assay (anaerobes); type: cell-based; conditions: Micromyx Number 4147, 35° C., 48 hours, anaerobic
[15] = tested on: Prevotella bivia; test: Agar dilution MIC assay (anaerobes); type: cell-based; conditions: Micromyx Number 3447, 35° C., 48 hours, anaerobic
[16] = tested on: Lactobacillus acidophilus; test: Agar dilution MIC assay (anaerobes); type: cell-based; conditions: Micromyx Number 0681, 35° C., 48 hours, anaerobic
[17] = tested on: Bacteroides fragilis 0123 (ATCC 25285); test: Agar dilution MIC assay (anaerobes), quality control organism; type: cell-based; conditions: 48 hours, anaerobic
[18] = tested on: Lactobacillus plantarum; test: Agar dilution MIC assay (anaerobes); type: cell-based; conditions: Micromyx Number 2791, 35° C., 48 hours, anaerobic
[19] = tested on: Bacteroides ureolyticus; test: Agar dilution MIC assay (anaerobes); type: cell-based; conditions: Micromyx Number 4150, 35° C., 48 hours, anaerobic
[20] = tested on: Prevotella intermedia; test: Agar dilution MIC assay (anaerobes); type: cell-based; conditions: Micromyx Number 3002, 35° C., 48 hours, anaerobic
[21] = tested on: Mobiluncus. curtisii; test: Agar dilution MIC assay (anaerobes); type: cell-based; conditions: Micromyx Number 4145, 35° C., 48 hours, anaerobic
[22] = tested on: Lactobacillus jensenii; test: Agar dilution MIC assay (anaerobes); type: cell-based; conditions: Micromyx Number 4149, 35° C., 48 hours, anaerobic
[23] = tested on: Mobiluncus mulieris; test: Agar dilution MIC assay (anaerobes); type: cell-based; conditions: Micromyx Number 4146, 35° C., 48 hours, anaerobic
[24] = Bacteroides ovatus, read-out: MIC

MIC ([1]; Anaerococcus prevotii, read-out: MIC): 0.06 µg/mL (≈ 0.2 µM)
MIC ([2]; Bacteroides fragilis, read-out: MIC): 2 µg/mL (≈ 6.68 µM)
MIC ([3]; Prevotella melaninogenica, read-out: MIC): ≤ 0.03 µg/mL
MIC ([4]; Fusobacterium nucleatum, read-out: MIC): ≤ 0.03 µg/mL
MIC ([5]; Anaerococcus tetradius, read-out: MIC): ≤ 0.03 µg/mL
MIC ([6]; Porphyromonas levii, read-out: MIC): 0.06 µg/mL (≈ 0.2 µM)
MIC ([7]; Gardnerella vaginalis, read-out: MIC): 0.12 µg/mL (≈ 0.401 µM)
MIC ([8]; Porphyromonas asaccharolytica, read-out: MIC): ≤ 0.03 µg/mL
MIC [9, 24]: ≤ 0.03 µg/mL
MIC ([10]; Peptostreptococcus anaerobius, read-out: MIC): ≤ 0.03 µg/mL
MIC [11, 24]: 0.25 µg/mL (≈ 0.835 µM)
MIC ([12]; Lactobacillus gasseri, read-out: MIC): 0.25 µg/mL (≈ 0.835 µM)
MIC ([13]; Lacticaseibacillus casei, read-out: MIC): 0.5 µg/mL (≈ 1.67 µM)
MIC ([14]; Lactobacillus crispatus, read-out: MIC): 0.12 µg/mL (≈ 0.401 µM)
MIC ([15]; Prevotella bivia, read-out: MIC): ≤ 0.03 µg/mL
MIC ([16]; Lactobacillus acidophilus, read-out: MIC): 0.12 µg/mL (≈ 0.401 µM)
MIC ([17]; Bacteroides fragilis, ATCC25285, Micromyx Number 0123, 35° C., read-out: MIC): 0.12 µg/mL (≈ 0.401 µM)
MIC ([19]; Campylobacter ureolyticus, read-out: MIC): 0.25 µg/mL (≈ 0.835 µM)
MIC ([20]; Prevotella intermedia, read-out: MIC): ≤ 0.03 µg/mL
MIC ([21]; Mobiluncus curtisii, read-out: MIC): ≤ 0.03 µg/mL
MIC ([22]; Lactobacillus jensenii, read-out: MIC): 0.25 µg/mL (≈ 0.835 µM)
MIC ([23]; Mobiluncus mulieris, read-out: MIC): ≤ 0.03 µg/mL
Structure (SMILES): C[C@@H](O)[C@H]1C(=O)N2C(C(=O)O)=C(SCCN=CN)C[C@H]12 [Imipenem, reference compound]
MIC ([18]; Lactiplantibacillus plantarum, read-out: MIC): 2 µg/mL (≈ 6.68 µM)

MIC [1]: >30000 µg/mL
MIC [2]: >30000 µg/mL
MIC [3]: >30000 µg/mL
MIC [4]: >30000 µg/mL
MIC [5]: >30000 µg/mL
MIC [6]: >30000 µg/mL
MIC [7]: 5000 µg/mL (≈ 13900 µM)
MIC [8]: >30000 µg/mL
MIC [9]: 30000 µg/mL (≈ 83200 µM)
MIC [10]: >30000 µg/mL
MIC [11]: >30000 µg/mL
MIC [12]: >30000 µg/mL
MIC [13]: >30000 µg/mL
MIC [14]: 10000 µg/mL (≈ 27700 µM)
MIC [15]: 30000 µg/mL (≈ 83200 µM)
MIC [16]: >30000 µg/mL
MIC ([17]; Micromyx Number 0123, 35° C.): >30000 µg/mL
MIC [19]: >30000 µg/mL
MIC [20]: >30000 µg/mL
MIC [21]: >30000 µg/mL
MIC [22]: >30000 µg/mL
MIC [23]: >30000 µg/mL
Structure (SMILES): CC(=O)COc1cc(S(=O)(=O)O)cc2cc(S(=O)(=O)O)ccc12 [SPL7013]
MIC [18]: >30000 µg/mL
